Test results reported in patent US6538037B2, “Methods for preparation and use of 1α,24(S)-dihydroxyvitamin D2” (Bone Care International, Inc., priority 1991, dated 2003).
Values belong to the compound of their own block, whether it stands above or below them.

Assays:
vitamin D receptor (VDR) = assay: Vitamin D-inducible growth hormone production in transfected COS-1 cells; format: cell-based, Green monkey; details: for Total GH Production: averages of duplicate determinations
Procedure: The biological activity in vitro of chemically synthesized 1α,24(S)-(OH)2D2 and 1α,24(R)-(OH)2D2 was measured using a vitamin D-dependent transcriptional activation model system in which a vitamin D receptor (VDR)-expressing plasmid pSG5-hVDR1/3 and a plasmid p(CT4)^4TKGH containing a Growth Hormone (GH)-gene, under the control of a vitamin D-responsive element (VDRE) were co-transfected into Green monkey kidney, COS-1 cells. DNA's for these two vectors were supplied by Dr. Mark Haussler, Department of Biochemistry, University of Arizona, Tucson, Ariz.
Transfected cells were incubated with vitamin D metabolites and growth hormone production was measured.

[1] = tested on: 1,25-(OH)2D3 receptor site; details: Ishizuka et al., Steroids 1981, 1982; cited from earlier work
[2] = Blood metabolite levels in osteoporotic women administered 1α-OH-D2; format: in vivo, human
Procedure: An increase in the production of 1α,24(S)-(OH)2D2 relative to 1α,25-(OH)2D2 has also been observed by the present inventors in human females who received 1α-OH-D2 as part of an investigation of that drug for the treatment of osteoporosis. Following either a single dose of 2 μg of 1α-OH-D2 or daily doses of 8 μg/day for one week, blood was collected and analyzed for the metabolites 1α,24(S)-(OH)2D2 and 1α,25-(OH)2D2. Lipid was extracted from the blood, and the metabolites were purified by HPLC using standard methods and quantified with the radioreceptor assay produced by Incstar (Stillwater, Minn.). One day after a single 2 μg dose, the level of 1α,24(S)-(OH)2D2 was undetectable with the 1α,25-(OH)2D2 level being approximately 11 pg/ml. In contrast, one day following the last dose of 8 μg, the level of 1α,24(S)-(OH)2D2 averaged 9 pg/mL with the 1α,25-(OH)2D2 level averaging 30 pg/mL.

Hep 3B cells = assay: Metabolism of 1α-OH-D2 in Hep 3B cells; format: in vitro ADME, human; details: Experiment 2, substrate 1α-OH-D2 10 μM, photodiode array spectrophotometry
Procedure: Substantially pure 1α-(OH)D2 was obtained from Bone Care International, Inc. of Madison, Wis. The 1α-(OH)D2 was cultured for 48 hours with cells derived from a human hepatoma, Hep 3B, in medium devoid of fetal calf serum using known methods in the art.
Lipid extracts of the combined medium and cells were generated by known methods in the art and were subjected to high pressure liquid chromatography (HPLC) on Zorbax-S1L developed with hexane/isopropano/methanol (91:7:2). The putative 1α,24(?)-(OH)2D2 metabolite eluted between the parent 1α-(OH)D2 and standard 1α,25-(OH)2D2 (also obtained from Bone Care International, Inc. of Madison, Wis.). (As used herein, the term “1α,24(?)-(OH)2D2” is meant to indicate that the epimeric form has not been identified.) The 1α,24(?)-(OH)2D2 was further purified by this HPLC system before the metabolite's identification was undertaken using mass spectrometry analysis.
Hep 3B cells were incubated with 1α-OH-D2, as described above, at final concentrations of 1, 10, or 100 nM (Experiment 1), and 1 or 10 μM (Experiment 2) and 1α,24(S)-(OH)2D2 was extracted and purified. The 1α,24(S)-(OH)2D2 and 1α,25-(OH)2D2 metabolites were quantitated by recovered radiolabel (Experiment 1) or by photodiode array spectrophotometry (Experiment 2).

bovine thymus VDR = biological target: T1, bovine thymus VDR (Bos taurus, UniProt Q28037); assay: Radioreceptor assay, displacement of 3H-1α,25-(OH)2D3 tracer from bovine thymus VDR; format: binding; details: for binding affinity to VDR compared with reference standard (in words): environmentally exposed compounds; for ED50 (amount of material to displace 50% of the bound 3H-1α,25-dihydroxyvitamin D3): environmentally exposed crystalline and powdered material, FIG. 5
T1 construct: commercially available reagents of bovine thymus VDR; purchased Incstar (Stillwater, Minn.); host or cells: bovine thymus
T1 sequence (Q28037 1-426): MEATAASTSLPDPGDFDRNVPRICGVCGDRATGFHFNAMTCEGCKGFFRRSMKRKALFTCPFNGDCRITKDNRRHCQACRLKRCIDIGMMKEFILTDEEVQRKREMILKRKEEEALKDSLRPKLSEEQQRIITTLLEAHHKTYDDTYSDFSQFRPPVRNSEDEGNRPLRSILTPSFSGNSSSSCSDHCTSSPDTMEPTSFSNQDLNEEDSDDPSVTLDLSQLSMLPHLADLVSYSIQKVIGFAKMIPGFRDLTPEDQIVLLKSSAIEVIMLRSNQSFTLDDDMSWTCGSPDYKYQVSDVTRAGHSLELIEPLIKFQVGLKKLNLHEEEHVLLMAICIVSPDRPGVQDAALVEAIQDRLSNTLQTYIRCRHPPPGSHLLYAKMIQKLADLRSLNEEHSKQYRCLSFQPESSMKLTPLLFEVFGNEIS
Procedure: Purified 1α,24(S)-(OH)2D2 was quantitated by photodiode array spectrophotometry and assayed in the radioreceptor assay.
The purified 1α,24(R)-(OH)2D2 and 1α,24(S)-(OH)2D2 epimers were quantitated by ultraviolet spectroscopy.
The binding affinities of the environmentally exposed compounds, crystalline 1α,24-dihydroxyvitamin D2 and powdered 1α,24-dihydroxyvitamin D2, to the vitamin D receptor (VDR) were assessed using methods known in the art, as described, e.g., in Example 6. […] The percent bound versus amount of compound in pg/tube are graphed in FIG. 5.

[3] = cited from earlier work
[4] = Plasma metabolites in vitamin D-deficient rats; format: in vivo, rat; details: for plasma metabolite after administration: oral or intraperitoneal, vitamin D-deficient rats, HPLC of plasma lipid extracts
Procedure: Vitamin D2 or 24-OH-D2 was administered (either oral or intraperitoneal supplementation) to vitamin D-deficient rats. Lipid extracts of the plasma were prepared and the metabolites purified by the method of Horst et al. (Horst, R. L., Koszewski, N.J. and Reinhardt, T. A., Biochem., 29:578-82 (1990)) described below for synthesyzing standard biological 1α,24-(OH)2D2.
Standard biological 1α,24-(OH)2D2 was synthesized in vitro from 24-OH-D2 by incubating 10 μg of 24-OH-D2 in flask containing 5 mL of 20% kidney homogenates made from vitamin D-deficient chicks. The product of this reaction was isolated by HPLC and identified by mass spectrometry.

[5] = Chemical stability testing, exposure to heat and light; format: physicochemical; details: one week; for overall retention of the compound (remained intact): after heat and light; for share of UV absorbing material being 1α,24-dihydroxyvitamin D2 (HPLC): detection at 265 nm; for absorbence at 265 nm retained: specimens exposed to heat and light, reference standard in ethanol in a freezer
Procedure: Samples of approximately 5 mg of either crystalline or powdered 1α,24-dihydroxyvitamin D2 were each placed in a 5 mL volumetric flask. The flasks were exposed to identical environmental conditions of variations in heat and light. Heat and light are environmental parameters well-known to affect negatively the integrity of vitamin D compounds.
After one week's time, the contents of the flasks were visually inspected. The powdered specimen appeared to be slightly yellow in color compared to the crystalline specimen. Five mL of ethanol was added to each sample and each specimen was dissolved. These solutions were analyzed for ultraviolet absorbence from 200 to 320 nm. A reference standard 1α,24-dihydroxyvitamin D2 dissolved in ethanol at the same concentration and stored in a freezer for the identical time period was similarly analyzed.
The ethanol solutions of the crystalline and powdered 1α,24-dihydroxyvitamin D2 were also analyzed by high performance liquid chromatography (HPLC) under the following conditions: […]

Compound: C=C1/C(=C\C=C2/CCC[C@]3(C)[C@@H]([C@H](C)/C=C/[C@](C)(O)C(C)C)CC[C@@H]23)C[C@@H](O)C[C@@H]1O [1α,24(R)-(OH)2D2, 1α,24(R)-dihydroxyvitamin D2]
- Net vitamin D-inducible GH-production (vitamin D receptor (VDR); inducer 5 × 10^−8 M): 1138 ng/mL
- Total GH Production (vitamin D receptor (VDR); inducer 5 × 10^−8 M): 1182 ng/mL
- Net vitamin D-inducible GH-production (vitamin D receptor (VDR); inducer 10^−7 M): 1256 ng/mL
- Total GH Production (vitamin D receptor (VDR); inducer 10^−7 M): 1300 ng/mL
- Net vitamin D-inducible GH-production (vitamin D receptor (VDR); inducer 10^−8 M): 1056 ng/mL
- Total GH Production (vitamin D receptor (VDR); inducer 10^−8 M): 1100 ng/mL
- Net vitamin D-inducible GH-production (vitamin D receptor (VDR); inducer 10^−9 M): 36 ng/mL
- Total GH Production (vitamin D receptor (VDR); inducer 10^−9 M): 80 ng/mL

Compound: C=C1/C(=C\C=C2/CCC[C@]3(C)[C@@H]([C@H](C)CC[C@@H](O)C(C)C)CC[C@@H]23)C[C@@H](O)C[C@@H]1O [1α,24(R)-(OH)2D3, 1α,24(R)-dihydroxyvitamin D3]
- binding to the 1,25-(OH)2D3 receptor site relative to 1,25-(OH)2D3 [1]: more tightly than does 1,25-(OH)2D3 itself

- blood level of metabolite ([2]; one day after a single 2 μg dose of 1α-OH-D2): approximately 11 pg/ml
- blood level of metabolite (average) ([2]; one day following the last dose of 8 μg/day 1α-OH-D2 for one week): 0.03 ng/mL
- Rate of Production (Hep 3B cells): 7.4 pmol per 10^6 cells/day
- half-maximal binding (bovine thymus VDR; radioreceptor assay, Incstar kit): 80 pg/mL
Compound: C=C1/C(=C\C=C2/CCC[C@]3(C)[C@@H]([C@H](C)/C=C/[C@H](C)C(C)(C)O)CC[C@@H]23)C[C@@H](O)C[C@@H]1O [1α,25-(OH)2D2, 1α,25-dihydroxyvitamin D2, reference compound]

Compound: C=C1/C(=C\C=C2/CCC[C@]3(C)[C@@H]([C@H](C)/C=C/[C@H](C)C(C)C)CC[C@@H]23)C[C@@H](O)C[C@@H]1O [1α-(OH)D2, 1α-hydroxyvitamin D2]
- bone mass in human osteoporotic patients ([3]; dosages of 2.0 μg/day or higher): will reverse the loss of bone mass

Compound: C=C1/C(=C\C=C2/CCC[C@]3(C)[C@@H]([C@H](C)CCCC(C)C)CC[C@@H]23)C[C@@H](O)C[C@@H]1O [1α-(OH)D3, 1α-hydroxyvitamin D3]
- safely obtainable dosage levels ([3]; human, in vivo): dosage levels of 2.0 μg/day or greater are not safely obtained

Compound: C=C1CC[C@H](O)C/C1=C/C=C1\CCC[C@]2(C)[C@@H]([C@H](C)/C=C/C(C)(O)C(C)C)CC[C@@H]12 (some centres unmarked) [24-OH-D2, 24-hydroxyvitamin D2]
- plasma metabolite after administration [4]: one metabolite isolated co-migrated on HPLC with the standard 1α,24-(OH)2D2

Compound: C=C1CC[C@H](O)C/C1=C/C=C1\CCC[C@]2(C)[C@@H]([C@H](C)CCCC(C)(C)O)CC[C@@H]12 [25-OH-D3, 25-hydroxyvitamin D3, reference compound]
- Net vitamin D-inducible GH-production (vitamin D receptor (VDR); inducer 10^−5 M): 731 ng/mL
- Total GH Production (vitamin D receptor (VDR); inducer 10^−5 M): 775 ng/mL
- Net vitamin D-inducible GH-production (vitamin D receptor (VDR); inducer 10^−6 M): 1056 ng/mL
- Total GH Production (vitamin D receptor (VDR); inducer 10^−6 M): 1100 ng/mL
- Net vitamin D-inducible GH-production (vitamin D receptor (VDR); inducer 10^−7 M): 201 ng/mL
- Total GH Production (vitamin D receptor (VDR); inducer 10^−7 M): 245 ng/mL

- overall retention of the compound (remained intact) [5]: over 88%
- share of UV absorbing material being 1α,24-dihydroxyvitamin D2 (HPLC) [5]: 95%
- retention of the structure, weight-based normalization of the HPLC peak area ([5]; listed as crystalline specimen): 93%
- absorbence at 265 nm retained ([5]; listed as crystalline specimen): 93%
- ED50 (amount of material to displace 50% of the bound 3H-1α,25-dihydroxyvitamin D3) (bovine thymus VDR; listed as crystalline material): about 10 pg/tube
Compound: C=C1C(=CC=C2CCCC3(C)C2CCC3C(C)C=CC(C)(O)C(C)C)CC(O)CC1O (stereo not drawn) [crystalline 1α,24-dihydroxyvitamin D2, 1α,24-dihydroxyvitamin D2]
- binding affinity to VDR compared with reference standard (in words) (bovine thymus VDR): approximately the same as that of a reference standard

- overall retention of the compound (remained intact) [5]: 35%
- share of UV absorbing material being 1α,24-dihydroxyvitamin D2 (HPLC) [5]: 78%
- retention of the structure, weight-based normalization of the HPLC peak area ([5]; listed as powdered specimen): 23%
- absorbence at 265 nm retained ([5]; listed as powdered specimen): 45%
- binding affinity to VDR compared with reference standard (in words) (bovine thymus VDR): considerably less
- ED50 (amount of material to displace 50% of the bound 3H-1α,25-dihydroxyvitamin D3) (bovine thymus VDR): about 40 pg/tube
- binding activity relative to standard 1α,24-dihydroxyvitamin D2 (bovine thymus VDR; powder form exposed to the same conditions): less than 25%
Compound: C=C1C(=CC=C2CCCC3(C)C2CCC3C(C)C=CC(C)(O)C(C)C)CC(O)CC1O (stereo not drawn) [powdered 1α,24-dihydroxyvitamin D2, 1α,24-dihydroxyvitamin D2]

- retention of the structure, weight-based normalization of the HPLC peak area [5]: 100%
- share of UV absorbing material being 1α,24-dihydroxyvitamin D2 (HPLC) [5]: 96%
- absorbence at 265 nm retained [5]: 100%
- ED50 (amount of material to displace 50% of the bound 3H-1α,25-dihydroxyvitamin D3) (bovine thymus VDR): about 10 pg/tube
Compound: C=C1C(=CC=C2CCCC3(C)C2CCC3C(C)C=CC(C)(O)C(C)C)CC(O)CC1O (stereo not drawn) [reference standard, 1α,24-dihydroxyvitamin D2]

Compound: C=C1CC[C@H](O)C/C1=C/C=C1\CCC[C@]2(C)[C@@H]([C@H](C)/C=C/[C@H](C)C(C)C)CC[C@@H]12 [vitamin D2]
- plasma metabolite after administration [4]: one metabolite isolated co-migrated on HPLC with the standard 1α,24-(OH)2D2

Compound: C=C1CC[C@H](O)C/C1=C/C=C1\CCC[C@]2(C)[C@@H]([C@H](C)CCCC(C)C)CC[C@@H]12 [vitamin D3]
- 24-hydroxylated metabolite in plasma after administration ([4]; comparable rats): no detectable 24-OH-D3
